Reference: patent publication US6737383B1, “Herbicidal oxadiazolidines” (priority 1999, dated 2004)

What was measured:
bedstraw = assay: Test B pre/postemergence bedstraw; format: in vivo, Galium aparine; conditions: Postemergence
Outline: (§1)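 Herbicidal effect was estimated by eye on a ten-point control scale after plants spent twelve to sixteen days in a greenhouse following soil or foliar treatment. Foliar sprays targeted plants at one to four leaves; all doses were formulated in a non-phytotoxic solvent with surfactant.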

blackgrass = assay: Test B pre/postemergence blackgrass; format: in vivo, Alopecurus myosuroides
Outline: as §1

surinam grass = assay: Test B pre/postemergence surinam grass; format: in vivo, Brachiaria decumbens
Outline: as §1

corn = assay: Test B pre/postemergence corn; format: in vivo, Zea mays
Outline: as §1

crabgrass = assay: Test B pre/postemergence crabgrass; format: in vivo, Digitaria sanguinalis
Outline: as §1

pigweed = assay: Test B pre/postemergence pigweed; format: in vivo, Amaranthus retroflexus
Outline: as §1

rape = assay: Test B pre/postemergence rape; format: in vivo, Brassica napus
Outline: as §1

soybean = assay: Test B pre/postemergence soybean; format: in vivo, Glycine max
Outline: as §1

sugar beet = assay: Test B pre/postemergence sugar beet; format: in vivo, Beta vulgaris
Outline: as §1

velvetleaf = assay: Test B pre/postemergence velvetleaf; format: in vivo, Abutilon theophrasti
Outline: as §1

wheat = assay: Test B pre/postemergence wheat; format: in vivo, Triticum aestivum
Outline: as §1

wild oat = assay: Test B pre/postemergence wild oat; format: in vivo, Avena fatua
Outline: as §1

purple nutsedge = assay: Test B pre/postemergence purple nutsedge; format: in vivo, Cyperus rotundus
Outline: as §1

rice = assay: Test B flood test rice; format: in vivo, Oryza sativa
Outline: (§2)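 Read-out is a visual response score from 0 (no effect) to 10 (complete control), assigned by comparison with untreated controls. Treatment was applied at the 2-leaf stage, and plants stayed in the greenhouse for twelve to sixteen days before scoring.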

smallflower flatsedge = assay: Test B flood test smallflower flatsedge; format: in vivo, Cyperus difformis
Outline: as §2

duck salad = assay: Test B flood test duck salad; format: in vivo, Heteranthera limosa
Outline: as §2

[1] = Postemergence, Rate 62 g/ha, scale 0 to 10, 0 is no effect, 10 is complete control
[2] = Postemergence, Rate 125 g/ha, scale of 0 to 10 where 0 is no effect and 10 is complete control
[3] = Postemergence, Rate 250 g/ha, scale of 0 to 10, 0 is no effect, 10 is complete control
[4] = Postemergence, Rate 500 g/ha, scale of 0 to 10 where 0 is no effect and 10 is complete control
[5] = Preemergence, Rate 62 g/ha, scale 0 to 10 (0 no effect, 10 complete control)
[6] = Preemergence, Rate 125 g/ha, scale of 0 to 10 where 0 is no effect and 10 is complete control
[7] = Preemergence, Rate 250 g/ha, scale 0 to 10 (0 no effect, 10 complete control)
[8] = Preemergence, Rate 500 g/ha, scale of 0 to 10 where 0 is no effect and 10 is complete control
[9] = Rate 62 g/ha, flood test species, Pre-emergence, visual evaluation after twelve to sixteen days
[10] = Rate 125 g/ha, under heading Pre-emergence, flood test species, visual evaluation after twelve to sixteen days
[11] = Rate 250 g/ha, Pre-emergence (flood test species), scale 0 to 10, 0 is no effect, 10 is complete control
[12] = Rate 500 g/ha, Pre-emergence section of Table B, 0 to 10 scale (0 no effect, 10 complete control)

CC(=O)N(C)CCn1c(=O)on(C(=O)N(c2ccc(F)cc2)C(C)C)c1=O [Compound 625]
Plant response rating, Bedstraw (bedstraw; Rate 62 g/ha, scale 0 to 10, 0 is no effect, 10 is complete control): 0 | Plant response rating, Bedstraw (bedstraw; Rate 125 g/ha, scale of 0 to 10 where 0 is no effect and 10 is complete control): 0 | Plant response rating, Blackgrass (blackgrass; [1]): 0 | Plant response rating, Blackgrass (blackgrass; [2]): 2 | Blackgrass plant response rating (blackgrass; [3]): 7 | Plant response rating, Blackgrass (blackgrass; [4]): 7 | Blackgrass plant response rating (blackgrass; [5]): 0 | Blackgrass plant response rating (blackgrass; [6]): 3 | Plant response rating, Blackgrass (blackgrass; [7]): 7 | Plant response rating, Blackgrass (blackgrass; [8]): 9 | Plant response rating, B. signalgrass (surinam grass; [1]): 0 | Plant response rating, B. signalgrass (surinam grass; [2]): 0 | B. signalgrass plant response rating (surinam grass; [3]): 2 | Plant response rating, B. signalgrass (surinam grass; [4]): 5 | B. signalgrass plant response rating (surinam grass; [5]): 0 | B. signalgrass plant response rating (surinam grass; [6]): 4 | Plant response rating, B. signalgrass (surinam grass; [7]): 8 | Plant response rating, B. signalgrass (surinam grass; [8]): 10 | Plant response rating, Corn (corn; [1]): 0 | Plant response rating, Corn (corn; [2]): 0 | Corn plant response rating (corn; [3]): 0 | Plant response rating, Corn (corn; [4]): 3 | Corn plant response rating (corn; [5]): 0 | Corn plant response rating (corn; [6]): 0 | Plant response rating, Corn (corn; [7]): 0 | Plant response rating, Corn (corn; [8]): 3 | Plant response rating, Crabgrass (crabgrass; [1]): 1 | Plant response rating, Crabgrass (crabgrass; [2]): 0 | Crabgrass plant response rating (crabgrass; [3]): 4 | Plant response rating, Crabgrass (crabgrass; [4]): 8 | Crabgrass plant response rating (crabgrass; [5]): 2 | Crabgrass plant response rating (crabgrass; [6]): 7 | Plant response rating, Crabgrass (crabgrass; [7]): 8 | Plant response rating, Crabgrass (crabgrass; [8]): 10 | Plant response rating, Redroot pigweed (pigweed; [1]): 0 | Plant response rating, Redroot pigweed (pigweed; [2]): 0 | Redroot pigweed plant response rating (pigweed; [3]): 0 | Redroot pigweed plant response rating (pigweed; [5]): 0 | Redroot pigweed plant response rating (pigweed; [6]): 0 | Plant response rating, Redroot pigweed (pigweed; [7]): 4 | Plant response rating, Redroot pigweed (pigweed; [8]): 8 | Plant response rating, Rape (rape; [1]): 0 | Plant response rating, Rape (rape; [2]): 0 | Rape plant response rating (rape; [3]): 0 | Plant response rating, Rape (rape; [4]): 0 | Rape plant response rating (rape; [5]): 0 | Rape plant response rating (rape; [6]): 0 | Plant response rating, Rape (rape; [8]): 4 | Plant response rating, Soybean (soybean; [1]): 0 | Plant response rating, Soybean (soybean; [2]): 2 | Soybean plant response rating (soybean; [3]): 3 | Soybean plant response rating (soybean; [5]): 0 | Soybean plant response rating (soybean; [6]): 0 | Plant response rating, Soybean (soybean; [7]): 0 | Plant response rating, Soybean (soybean; [8]): 0 | Plant response rating, Sugarbeets (sugar beet; [1]): 0 | Plant response rating, Sugarbeets (sugar beet; [2]): 0 | Sugarbeets plant response rating (sugar beet; [3]): 0 | Sugarbeets plant response rating (sugar beet; [5]): 0 | Sugarbeets plant response rating (sugar beet; [6]): 0 | Plant response rating, Sugarbeets (sugar beet; [7]): 0 | Plant response rating, Sugarbeets (sugar beet; [8]): 0 | Plant response rating, Velvetleaf (velvetleaf; [1]): 0 | Plant response rating, Velvetleaf (velvetleaf; [2]): 0 | Velvetleaf plant response rating (velvetleaf; [3]): 0 | Velvetleaf plant response rating (velvetleaf; [5]): 0 | Velvetleaf plant response rating (velvetleaf; [6]): 0 | Plant response rating, Velvetleaf (velvetleaf; [7]): 1 | Plant response rating, Velvetleaf (velvetleaf; [8]): 6 | Plant response rating, Wheat (wheat; [1]): 0 | Plant response rating, Wheat (wheat; [2]): 0 | Wheat plant response rating (wheat; [3]): 0 | Wheat plant response rating (wheat; [5]): 0 | Wheat plant response rating (wheat; [6]): 0 | Plant response rating, Wheat (wheat; [7]): 0 | Plant response rating, Wheat (wheat; [8]): 3 | Plant response rating, Wild oats (wild oat; [1]): 0 | Plant response rating, Wild oats (wild oat; [2]): 0 | Wild oats plant response rating (wild oat; [3]): 0 | Wild oats plant response rating (wild oat; [5]): 0 | Wild oats plant response rating (wild oat; [6]): 0 | Plant response rating, Wild oats (wild oat; [7]): 3 | Plant response rating, Wild oats (wild oat; [8]): 5 | Plant response rating, Nutsedge (purple nutsedge; [1]): 0 | Plant response rating, Nutsedge (purple nutsedge; [2]): 0 | Nutsedge plant response rating (purple nutsedge; [3]): 0 | Nutsedge plant response rating (purple nutsedge; [5]): 0 | Nutsedge plant response rating (purple nutsedge; [6]): 0 | Plant response rating, Nutsedge (purple nutsedge; [7]): 0 | Plant response rating, Nutsedge (purple nutsedge; [8]): 0 | Plant response rating, Rice (0 to 10 scale, 0 is no effect, 10 is complete control) (rice; [9]): 0 | Rice plant response rating (0 to 10 scale, 0 is no effect, 10 is complete control) (rice; [10]): 0 | Rice plant response rating (rice; [11]): 0 | Rice plant response rating (rice; [12]): 0 | Plant response rating, S. Flatsedge (0 to 10 scale, 0 is no effect, 10 is complete control) (smallflower flatsedge; [9]): 0 | S. Flatsedge plant response rating (0 to 10 scale, 0 is no effect, 10 is complete control) (smallflower flatsedge; [10]): 0 | S. Flatsedge plant response rating (smallflower flatsedge; [11]): 0 | S. Flatsedge plant response rating (smallflower flatsedge; [12]): 0 | Plant response rating, Ducksalad (0 to 10 scale, 0 is no effect, 10 is complete control) (duck salad; [9]): 0 | Ducksalad plant response rating (0 to 10 scale, 0 is no effect, 10 is complete control) (duck salad; [10]): 0 | Ducksalad plant response rating (duck salad; [11]): 0 | Ducksalad plant response rating (duck salad; [12]): 0
